What is called IC50 is the concentration that inhibits the measured activity by half.

The test system of data set [1] is platelets derived from human ESCs. Description: GPIbα retention in platelets derived from human ESCs. Format: cell-based. The note with it: KP-457 15 µmol/L. How it is done: (§1) Directed differentiation to MKs and platelets from iPSCs and ESCs was performed as described previously. Briefly, 3 × 10^4 HPCs derived from iPS‐sacs on C3H10T1/2 feeder cells in the presence of 20 ng/ml vascular endothelial growth factor were transferred on day 14 of culture onto C3H10T1/2 feeder cells in differentiation medium supplemented with 50 ng/ml stem cell factor, 100 ng/ml thrombopoietin, 25 U/ml heparin sodium, and test compounds at 24°C or 37°C. The medium was refreshed every 3 days, and nonadherent cells were collected and analyzed on days 22–24.
(§2) Flow cytometric analysis was performed as previously described. Briefly, iPSC‐ and ESC‐derived MKs on days 22–24 and platelets in their supernatants were stained with combinations of antibodies for 30 minutes on ice (for MKs) or at room temperature (for platelets). Samples of MKs/platelets were then washed, diluted with staining medium (phosphate‐buffered saline containing 3% fetal bovine serum), and analyzed using flow cytometry (FACSAria; BD). Trucount tubes (BD) were used to quantify the MKs and platelets.
Fig. S4. The inhibitory effect of KP-457 on GPIbα shedding in platelets derived from human
ESCs and immortalized megakaryocyte progenitor cell lines (imMKCLs).
Percentages of GPIbα-expressing CD41a+ platelets produced from human ESCs (A) and […]

In data set [2] the target is T1, human MMP8 (Homo sapiens, UniProt P22894).
T1 construct: purchased EMD Millipore
T1 sequence (P22894 101-467): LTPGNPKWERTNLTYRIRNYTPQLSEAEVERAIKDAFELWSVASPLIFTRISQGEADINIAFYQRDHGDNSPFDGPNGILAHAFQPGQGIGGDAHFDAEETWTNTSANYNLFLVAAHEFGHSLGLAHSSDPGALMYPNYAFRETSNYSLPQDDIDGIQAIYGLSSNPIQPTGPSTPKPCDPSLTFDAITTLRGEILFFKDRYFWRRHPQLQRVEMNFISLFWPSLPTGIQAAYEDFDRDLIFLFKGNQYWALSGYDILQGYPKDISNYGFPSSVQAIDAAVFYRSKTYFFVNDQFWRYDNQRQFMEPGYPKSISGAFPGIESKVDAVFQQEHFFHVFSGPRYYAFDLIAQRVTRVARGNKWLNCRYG
Put plainly: MMP and ADAM activity assay (fluorescence-based): MMP8. The data set is classed as biochemical. The note with it: cell-free fluorescence assay. An excerpt:
(§3) Human ADAM17, ADAM10, and MMP17 were from R&D Systems (Minneapolis, MN, http://www.rndsystems.com), and human MMP1, MMP2, MMP3, MMP8, MMP9, MMP13, and MMP14 were from EMD Millipore. MMP1, MMP2, MMP8, MMP9, MMP13, and MMP17 were activated using p‐aminophenylmercuric acetate (Sigma‐Aldrich) before testing. Fluorogenic substrates for measuring activity of ADAM10 and ADAM17 [Nma‐[…](Dnp)r‐NH2, based on the cleavage site of TNF‐α]; MMP1, MMP9, MMP13, and MMP14 [Dnp‐P‐Cha‐GC(Me)HAK(N‐Me‐Abz)‐NH2]; MMP3 [MOCAc‐RPKPVE‐Nva‐WRK(Dnp)‐NH2]; and MMP2, MMP8, and MMP17 [MOCAc‐PLGL‐A2pr(Dnp)‐AR‐NH2] were all provided by Peptide Institute (Osaka, Japan, https://www.peptide.co.jp/en) and used as substrates. In addition, inhibitory activities were measured using LC/MS/MS with a GPIbα‐based substrate peptide ([…]), a C terminal‐based standard peptide ([…]), and an internal standard peptide ([…]). These peptides were synthetized by Scrum (Tokyo, Japan, http://www.scrum‐net.co.jp/english/top_en.htm).

Data set [3] deals with T2, human MMP13 (Homo sapiens, UniProt P45452).
T2 construct: purchased EMD Millipore
Put plainly: MMP and ADAM activity assay (fluorescence-based): MMP13. Format: biochemical. Conditions: cell-free fluorescence assay.
From the text: as §3

For data set [4], the system named is human washed platelets. Description: CCCP-induced GPIbα shedding from washed platelets. The data set is classed as cell-based. Conditions: CCCP-treated human platelets. How it is done:
as §2
Washed platelets were prepared as described elsewhere.

Data set [5] deals with T3, human MMP14 (Homo sapiens, UniProt P50281).
T3 construct: purchased EMD Millipore
Description: MMP and ADAM activity assay (fluorescence-based): MMP14. The data set is classed as biochemical. The note with it: cell-free fluorescence assay. How it is done: as §3, with “KP‐457 and GM‐6001 were tested for their ability to inhibit MMP‐ and ADAM‐catalyzed cleavage of substrates in a fluorescence‐based assay. Human” for “Human”

Data set [6] addresses T4, human MMP9 (Homo sapiens, UniProt P14780).
T4 construct: purchased EMD Millipore
Description: MMP and ADAM activity assay (fluorescence-based): MMP9. The data set is classed as biochemical. The note with it: cell-free fluorescence assay.
From the text: as §3

For data set [7], the target named is T5, Human ADAM17 (Homo sapiens, UniProt P78536).
T5 construct: purchased R&D Systems
T5 sequence (P78536 215-824): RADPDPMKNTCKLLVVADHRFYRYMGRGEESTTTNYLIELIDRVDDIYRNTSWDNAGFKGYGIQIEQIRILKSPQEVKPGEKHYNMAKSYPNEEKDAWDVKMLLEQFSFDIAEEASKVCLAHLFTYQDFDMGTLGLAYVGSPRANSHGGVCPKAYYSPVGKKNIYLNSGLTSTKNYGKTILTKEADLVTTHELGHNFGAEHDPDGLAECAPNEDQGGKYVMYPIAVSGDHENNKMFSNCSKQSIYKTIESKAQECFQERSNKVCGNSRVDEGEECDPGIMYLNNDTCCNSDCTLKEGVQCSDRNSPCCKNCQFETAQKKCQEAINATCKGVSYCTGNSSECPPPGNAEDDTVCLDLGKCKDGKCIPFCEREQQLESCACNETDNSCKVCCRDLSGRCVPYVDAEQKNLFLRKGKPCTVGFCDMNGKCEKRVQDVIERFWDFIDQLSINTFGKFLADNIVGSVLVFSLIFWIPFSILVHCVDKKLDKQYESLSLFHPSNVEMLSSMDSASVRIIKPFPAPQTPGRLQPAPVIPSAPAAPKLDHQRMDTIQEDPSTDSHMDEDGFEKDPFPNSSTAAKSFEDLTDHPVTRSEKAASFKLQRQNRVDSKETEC
Description: Cleavage of GPIbα-based substrate peptide by ADAM17 (LC/MS/MS). Format: biochemical. Conditions: GPIbα-based substrate peptide, LC/MS/MS; read-out: IC50, inhibition of C-terminal cleavage of the GPIbα sequence by ADAM17.
From the text: as §3
(1 picture or pasted object on this page, not shown here)

A short description of data set [8]: Good laboratory practice genotoxicity studies. The note with it: data not shown.
For data set [9], the target named is T6, human MMP3 (Homo sapiens, UniProt P08254).
T6 construct: purchased EMD Millipore
T6 sequence (P08254 100-477): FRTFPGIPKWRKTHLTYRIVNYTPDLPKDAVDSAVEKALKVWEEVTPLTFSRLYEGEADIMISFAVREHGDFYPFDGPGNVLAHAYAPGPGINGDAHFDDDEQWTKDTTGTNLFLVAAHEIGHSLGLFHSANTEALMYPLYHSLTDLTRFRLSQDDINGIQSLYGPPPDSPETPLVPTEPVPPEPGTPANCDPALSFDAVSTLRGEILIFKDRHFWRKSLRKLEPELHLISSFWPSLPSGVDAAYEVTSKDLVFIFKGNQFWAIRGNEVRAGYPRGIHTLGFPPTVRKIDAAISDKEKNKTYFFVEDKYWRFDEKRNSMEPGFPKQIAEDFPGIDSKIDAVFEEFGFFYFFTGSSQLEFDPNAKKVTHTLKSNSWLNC
Put plainly: MMP and ADAM activity assay (fluorescence-based): MMP3. Format: biochemical. The note with it: cell-free fluorescence assay. As to the method:
as §3, with “KP‐457 and GM‐6001 were tested for their ability to inhibit MMP‐ and ADAM‐catalyzed cleavage of substrates in a fluorescence‐based assay. Human” for “Human”

Data set [10] addresses T7, human MMP17 (Homo sapiens, UniProt Q9ULZ9).
T7 construct: purchased R&D Systems
Put plainly: MMP and ADAM activity assay (fluorescence-based): MMP17. Format: biochemical. Conditions: cell-free fluorescence assay. How it is done:
as §3, with “KP‐457 and GM‐6001 were tested for their ability to inhibit MMP‐ and ADAM‐catalyzed cleavage of substrates in a fluorescence‐based assay. Human” for “Human”

The target in data set [11] is T8, human ADAM10 (Homo sapiens, UniProt O14672).
T8 construct: purchased R&D Systems
T8 sequence (O14672 214-748): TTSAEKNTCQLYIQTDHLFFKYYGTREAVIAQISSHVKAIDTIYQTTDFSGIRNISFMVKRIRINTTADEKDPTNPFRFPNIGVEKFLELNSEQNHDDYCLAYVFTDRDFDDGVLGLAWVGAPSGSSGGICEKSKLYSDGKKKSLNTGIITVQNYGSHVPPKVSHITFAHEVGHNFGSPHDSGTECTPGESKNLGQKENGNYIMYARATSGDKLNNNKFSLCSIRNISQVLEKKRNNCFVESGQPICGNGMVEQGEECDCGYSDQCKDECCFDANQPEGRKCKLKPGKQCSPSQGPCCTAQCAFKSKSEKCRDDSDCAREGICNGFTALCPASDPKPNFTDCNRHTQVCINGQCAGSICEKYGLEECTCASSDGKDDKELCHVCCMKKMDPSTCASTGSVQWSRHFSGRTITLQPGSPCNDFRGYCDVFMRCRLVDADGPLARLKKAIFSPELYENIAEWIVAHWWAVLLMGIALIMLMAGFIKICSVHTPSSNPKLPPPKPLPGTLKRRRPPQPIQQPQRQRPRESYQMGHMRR
Description: MMP and ADAM activity assay (fluorescence-based): ADAM10. The data set is classed as biochemical. Conditions: cell-free fluorescence assay. How it is done: as §3, with “KP‐457 and GM‐6001 were tested for their ability to inhibit MMP‐ and ADAM‐catalyzed cleavage of substrates in a fluorescence‐based assay. Human” for “Human”

Data set [12] deals with human iPSC-derived MKs and platelets. Description: Generation of MKs and platelets from human iPSC-derived HPCs at 37°C, flow cytometry. Format: cell-based. As to the method: as §1, §2
A general note: A flow cytometer gives signals particle by particle.

Data set [13] has as its system thrombus formation in NOG mice. Description: In vivo imaging of thrombus formation by transfused iPSC platelets. Also on record: species or system mouse. The note with it: 1 × 10^7 CD41a+ iPSC platelets generated with or without KP-457, irradiated NOG mice, laser injury; p = .0556. As to the method:
The procedure was identical to that in the previous report. Small vessels (<25 μm in diameter) within mesenteric capillaries of male NOD/SCID/IL‐2Rg‐null (NOG) mice were evaluated. NOG mice were purchased from the Central Institute for Experimental Animals (Kawasaki, Kanagawa, Japan, http://www.ciea.or.jp/en/index.html).

Data set [14] deals with dogs. Put plainly: Good laboratory practice systemic toxicity study in dogs. Format: in vivo. The note with it: intravenously once a day for 4 weeks, doses up to 3 mg/kg (maximal dose tested), data not shown.
Where [15] appears, read: KP-457 15 μmol/l, GM-6001 50 μmol/l, p38 MAP kinase inhibitor 10 μmol/l.

T4 sequence (P14780 107-707 limits assumed): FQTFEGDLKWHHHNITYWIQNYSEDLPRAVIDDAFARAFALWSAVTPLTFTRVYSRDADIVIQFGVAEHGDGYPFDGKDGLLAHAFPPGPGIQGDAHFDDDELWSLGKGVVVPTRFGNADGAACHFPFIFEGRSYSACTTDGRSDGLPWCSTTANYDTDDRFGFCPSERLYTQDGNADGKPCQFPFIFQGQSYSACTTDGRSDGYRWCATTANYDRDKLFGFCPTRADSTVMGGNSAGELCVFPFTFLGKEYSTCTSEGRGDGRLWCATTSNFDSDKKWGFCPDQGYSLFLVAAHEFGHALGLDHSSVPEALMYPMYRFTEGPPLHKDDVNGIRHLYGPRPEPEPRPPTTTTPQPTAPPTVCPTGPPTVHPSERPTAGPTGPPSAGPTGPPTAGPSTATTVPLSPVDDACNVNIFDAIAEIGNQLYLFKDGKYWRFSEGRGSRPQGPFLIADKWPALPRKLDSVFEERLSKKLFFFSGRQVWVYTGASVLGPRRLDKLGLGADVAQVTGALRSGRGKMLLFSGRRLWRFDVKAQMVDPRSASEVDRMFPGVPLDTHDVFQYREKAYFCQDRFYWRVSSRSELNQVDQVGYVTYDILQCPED
T7 sequence (Q9ULZ9 126-565 limits assumed): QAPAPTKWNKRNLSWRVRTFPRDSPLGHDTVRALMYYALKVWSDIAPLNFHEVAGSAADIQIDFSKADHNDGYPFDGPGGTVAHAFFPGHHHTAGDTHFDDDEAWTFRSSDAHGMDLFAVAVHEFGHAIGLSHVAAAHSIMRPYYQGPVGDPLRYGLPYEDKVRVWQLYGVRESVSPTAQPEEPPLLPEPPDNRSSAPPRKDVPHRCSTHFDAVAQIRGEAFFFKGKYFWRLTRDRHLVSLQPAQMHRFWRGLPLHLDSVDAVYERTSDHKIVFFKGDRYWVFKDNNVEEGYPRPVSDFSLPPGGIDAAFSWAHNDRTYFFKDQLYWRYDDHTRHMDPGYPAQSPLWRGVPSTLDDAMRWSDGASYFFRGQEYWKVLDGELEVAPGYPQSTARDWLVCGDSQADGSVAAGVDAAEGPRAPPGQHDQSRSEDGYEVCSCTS

As to `CC#CCOc1ccc(S(=O)(=O)CC(c2ccc(CNS(C)(=O)=O)cc2)N(O)C=O)cc1` (stereo not drawn) [KP-457, N‐(2‐{[4‐(but‐2‐yn‐1‐yloxy)phenyl]sulfonyl}‐1‐[4‐(methylsulfonamidomethyl)phenyl]ethyl)‐N‐hydroxyformamide], the “GPIbα retention in platelets derived from human ESCs” value in data set [1] is given as “consistently observed”. Also, the IC50 in data set [2] stood at 2200 nM; in data set [3], 930 nM; in data set [5], 2140 nM; in [6], 5410 nM; in data set [7], 10.6 nM; in [9], 9760 nM. Further, the IC50 in [10] was 7100 nM; in data set [11] it was 748 nM. Besides, the “potency relative to GM-6001, inhibition of GPIbα shedding in the cellular assay” value in data set [4] was 10 times. Besides, the genotoxicity result in data set [8] is given as “neither genotoxicity nor systemic toxicity”. Further, in data set [12] (setting [15]), the “number of CD41a+ total iPSC platelets” value is given as “no significant effect”. For the same compound, in data set [12] (setting [15]), the “retention of GPIbα expression on CD41a+ iPSC-derived platelets” value is on record as “able to retain”. Further, the “number of CD41a+ iPSC-derived MKs” value in [12] (KP-457 15 μmol/l, GM-6001 50 μmol/l, p38 MAP kinase inhibitor 10 μmol/l, MK differentiation and platelet production phases) is “no significant effect”. The “GPIbα+ population in human iPSC-derived CD41a+ platelets” value in [12] (KP-457 15 μmol/l, representative FACS plot, vehicle 48.3%) came to 80.7%. The “GPIbα retention by iPSC-derived platelets, inhibitor only during platelet production phase” value in [12] (days 21–23 or 24, KP-457 15, BIRB796 10, U0126 10, BMS345541 10, Z-VAD 10, Ro31-8220 3 μmol/l) is reported as “more effectively sustained”. The “iPSC platelets contributing to thrombus formation in vivo” value in data set [13] is on record as “higher number of iPSC platelets contributed to thrombus formation”. For the same compound, the systemic toxicity entry in data set [14] is given as “neither genotoxicity nor systemic toxicity”.

For the origin of these results see article PMC5442763, “Selective Inhibition of ADAM17 Efficiently Mediates Glycoprotein Ibα Retention During Ex Vivo Generation of Human Induced Pluripotent Stem Cell‐Derived Platelets” (Stem Cells Translational Medicine, 2016).
